Measured values taken from patent publication US8293489B2, “Methods for detection of biological substances” (priority 2007, dated 2012).
Marks after values point to notes of the source that are not given here.

Columns and labels:
Type in all cases: in vivo, human
TRAIL = TRAIL in nasal mucus in patients with hyposmia before and after treatment with theophylline; settings: for Nasal mucus TRAIL: patients with hyposmia (5)
Excerpt: Table 16 illustrates detection and measurement of TRAIL in nasal mucus in patients with hyposmia before and after treatment with theophylline at various doses. […] Without limiting the scope of the present invention, other drugs are also considered with in the scope of the present invention for the treatment of various diseases. This is one of the example of the multiple examples of drugs to treat disease in which changes of various substances found in nasal mucus reflect biochemical normalization and functional improvement in the disease process.
Table 16 illustrates detection and measurement of TRAIL in nasal mucus in patients with hyposmia before and after treatment with theophylline at various doses.

nitric oxide (NO) = experiment: NO in nasal mucus in patients with hyposmia before and after theophylline treatment; settings: for NO in nasal mucus: Patients (12)
Excerpt: Table 33 in the examples illustrates NO in nasal mucus in patients treated with theophylline in various doses before and after drug treatment. NO levels in nasal mucus changed following the treatment of patients with smell loss. […] Its continual measurement during treatment of the disorders helps in monitoring efficacy of therapy. The detection of NO in nasal mucus provides a non invasive method of diagnosing various diseases related to human physiology and pathology. The methods of the present invention include treatment of diseases by modulating the concentrations of NO by use of drugs or agents. The method of treatment is preferably by nasal administration.
Table 33 illustrates NO levels in nasal mucus in patients treated with Theophylline in various doses before and after drug treatment. NO levels in nasal mucus changed following the treatment of patients with smell loss. […] Its continual measurement during treatment of these disorders helps in monitoring efficacy of therapy. The detection of NO in nasal mucus provides a non invasive method of diagnosing various diseases related to human physiology and pathology.

TNFα = TNFα in nasal mucus in patients with hyposmia treated with theophylline
Excerpt: (§1) Tables 36-38 illustrate detection and measurement of TNFα, TNFR 1 and TNFR 2 in nasal mucus of patients with graded loss of smell following treatment with theophylline. […] Further, nasal mucus can be used as an index of disease, disease severity and efficacy of disease treatment. Without limiting the scope of the present invention, this approach is applicable to other substances in nasal mucus in relationship to other disease processes (e.g., cancer, stroke) and to follow-up of their treatment with any drug. […]
These studies were extended to reveal levels of TNFα in nasal mucus of patients with graded loss of smell following treatment with theophylline (Table 36). Smell loss was graded such that loss was greatest in Type I hyposmia, less in Type II and still less in Type III (I>II>III). […] In Type I hyposmia TNFα decreased 40% after treatment with 400 mg theophylline and 57% after treatment 600 mg. In Type II hyposmia TNFα decreased 11% after treatment with 600 mg theophylline.

TNFR 1 = TNFR 1 in nasal mucus in patients with hyposmia treated with theophylline
Excerpt: as §1
With increased smell loss pre treatment TNFR 1 levels were increased in nasal mucus in patients with Type I hyposmia (whose smell loss was increased over that of patients with Type II hyposmia). After theophylline treatment, as a dose of drug increased, TNFR 1 levels decreased in Type I associated with increases in smell function. […] The greater was the smell loss, the higher was the level of TNFR 1.

TNFR 2 = TNFR 2 in nasal mucus in patients with hyposmia treated with theophylline
Excerpt: Tables 36-38 illustrate detection and measurement of TNFα, TNFR 1 and TNFR 2 in nasal mucus of patients with graded loss of smell following treatment with theophylline. […] Further, nasal mucus can be used as an index of disease, disease severity and efficacy of disease treatment. Without limiting the scope of the present invention, this approach is applicable to other substances in nasal mucus in relationship to other disease processes (e.g., cancer, stroke) and to follow-up of their treatment with any drug.
Table 35 illustrates detection and measurement of TNFα, and soluble TNF receptors 1 and 2, moieties in the nasal mucus. TNFα, and soluble TNF receptors 1 and 2 increase in systems undergoing excessive apoptosis.
With a dose dependent increase of theophylline treatment levels of TNFR 2 in nasal mucus decreased consistent with a dose dependent increase in smell function. Levels of TNFR 2 in patients with Type I and Type II hyposmia decreased almost 50% on 600 mg theophylline consistent with their greatest return of smell function. At this highest level of theophylline levels of TNFR 2 were decreased in relationship to the decrease in smell function—TNFR 2, Type I>Type II>Type III; smell loss, Type I>Type II>Type III.

patients with hyposmia = experiment: Smell function in patients with hyposmia treated with theophylline
Excerpt: Theophylline may also restore smell function through other mechanisms.
Its continual measurement during treatment of these disorders helps in monitoring efficacy of therapy. The detection of NO in nasal mucus provides a non invasive method of diagnosing various diseases related to human physiology and pathology.

[1] = patients with hyposmia, theophylline at various doses
[2] = patients with hyposmia, theophylline in graded doses
[3] = patients with hyposmia, stepwise increase in theophylline treatment
[4] = HYPOSMIA TYPE I (7), theophylline 200 mg orally daily
[5] = HYPOSMIA TYPE I (7), theophylline 600 mg orally daily
[6] = HYPOSMIA TYPE II (10), theophylline 200 mg orally daily
[7] = HYPOSMIA TYPE II (10), theophylline 400 mg orally daily
[8] = HYPOSMIA TYPE II (10), theophylline 600 mg orally daily
[9] = HYPOSMIA TYPE III (2), theophylline 600 mg orally daily

Cn1c(=O)c2[nH]cnc2n(C)c1=O [theophylline]
Nasal mucus TRAIL (TRAIL; theophylline 200 mg): 855 µg/mL | Nasal mucus TRAIL (TRAIL; theophylline 400 mg): 791 µg/mL | Nasal mucus TRAIL (TRAIL; theophylline 600 mg): 247 µg/mL | change in TRAIL in nasal mucus (TRAIL; [1]): dose-dependent decrease in TRAIL | NO in nasal mucus (nitric oxide (NO); Theophylline 200 mg): 0.25 ± 0.01 µg/mL | NO in nasal mucus (nitric oxide (NO); Theophylline 400 mg): 0.40 ± 0.06 µg/mL | NO in nasal mucus (nitric oxide (NO); Theophylline 600 mg): 0.59 ± 0.16 µg/mL | change in NO in nasal mucus (nitric oxide (NO); [2]): increases in nasal mucus NO | TNF∝ in nasal mucus (TNFα; HYPOSMIA TYPE I (8), theophylline 400 mg orally daily): 15.6 | TNF∝ in nasal mucus (TNFα; HYPOSMIA TYPE I (8), theophylline 600 mg orally daily): 11.2 ± 4.4 | TNF∝ in nasal mucus (TNFα; HYPOSMIA TYPE II (13), theophylline 200 mg orally daily): 14.9 ± 2.5 | TNF∝ in nasal mucus (TNFα; HYPOSMIA TYPE II (13), theophylline 400 mg orally daily): 11.5 ± 3.2 | TNF∝ in nasal mucus (TNFα; HYPOSMIA TYPE II (13), theophylline 600 mg orally daily): 4.3 ± 0.8^a | TNF∝ in nasal mucus (TNFα; HYPOSMIA TYPE III (3), theophylline 600 mg orally daily): 1.2 ± 0.7^bc | decrease in TNFα in nasal mucus (TNFα; Type I hyposmia, after treatment 600 mg theophylline): 57% | decrease in TNFα in nasal mucus (TNFα; Type I hyposmia, after treatment with 400 mg theophylline): 40% | decrease in TNFα in nasal mucus (TNFα; Type II hyposmia, after treatment with 600 mg theophylline): 11% | change in TNFα levels in nasal mucus (TNFα; each hyposmia patient group, with each increased dose of theophylline): decreased in each patient group | TNF∝ in nasal mucus (TNFα; patients with hyposmia (24), Theophylline treatment (mg/l) 200): 20.0 ± 2.8 pg/mL | TNF∝ in nasal mucus (TNFα; patients with hyposmia (24), Theophylline treatment (mg/l) 400): 12.1 ± 2.1^d pg/ml | TNF∝ in nasal mucus (TNFα; patients with hyposmia (24), Theophylline treatment (mg/l) 600): 7.4 ± 1.8^a pg/ml | change in TNFα in nasal mucus (TNFα; [3]): significant dose-response decrease | TNFR 1 in nasal mucus (TNFR 1; [4]): 6,521 ± 1,304^c | TNFR 1 in nasal mucus (TNFR 1; HYPOSMIA TYPE I (7), theophylline 400 mg orally daily): 1,498 | TNFR 1 in nasal mucus (TNFR 1; [5]): 1,832 ± 704^a | TNFR 1 in nasal mucus (TNFR 1; [6]): 1,462 ± 371 | TNFR 1 in nasal mucus (TNFR 1; [7]): 1,087 ± 335 | TNFR 1 in nasal mucus (TNFR 1; [8]): 862 ± 335 | TNFR 1 in nasal mucus (TNFR 1; [9]): 585 ± 335 | change in TNFR 1 levels in nasal mucus (TNFR 1; Type I hyposmia, as dose of drug increased): decreased | TNFR 1 in nasal mucus (TNFR 1; patients with hyposmia (19), Theophylline treatment 200): 3,148 ± 663 pg/ml | TNFR 1 in nasal mucus (TNFR 1; patients with hyposmia (19), Theophylline treatment 400): 1,146 ± 220^b pg/ml | TNFR 1 in nasal mucus (TNFR 1; patients with hyposmia (19), Theophylline treatment 600): 1,220 ± 286^ab pg/ml | change in soluble TNF receptor 1 in nasal mucus (TNFR 1; [3]): significant dose-response decrease | TNFR 2 in nasal mucus (TNFR 2; [4]): 3,100 ± 1,184 | TNFR 2 in nasal mucus (TNFR 2; [5]): 1,491 ± 1,102 | TNFR 2 in nasal mucus (TNFR 2; [6]): 1,378 ± 480 | TNFR 2 in nasal mucus (TNFR 2; [7]): 1,014 ± 272 | TNFR 2 in nasal mucus (TNFR 2; [8]): 553 ± 158 | TNFR 2 in nasal mucus (TNFR 2; [9]): 436 ± 443 | change in TNFR 2 levels in nasal mucus (TNFR 2; dose dependent increase of theophylline treatment): decreased | decrease in TNFR 2 levels in nasal mucus (TNFR 2; patients with Type I and Type II hyposmia, 600 mg theophylline): ~50% | TNFR 2 in nasal mucus (TNFR 2; patients with hyposmia (18), Theophylline treatment (mg orally daily) 200): 1,952 ± 339 pg/ml | TNFR 2 in nasal mucus (TNFR 2; patients with hyposmia (18), Theophylline treatment (mg orally daily) 400): 949 ± 180^c pg/ml | TNFR 2 in nasal mucus (TNFR 2; patients with hyposmia (18), Theophylline treatment (mg orally daily) 600): 916 ± 344 pg/mL | change in soluble TNF receptor 2 in nasal mucus (TNFR 2; [3]): significant dose-response decrease | smell function (patients with hyposmia; patients with hyposmia (loss of smell), general statement): restores smell function in some patients with hyposmia | smell function (patients with hyposmia; patients with hyposmia, 600 mg theophylline): restored smell function to or toward normal | smell function (patients with hyposmia; [1]): returned smell function to normal in a dose-dependent manner | smell function (patients with hyposmia; [2]): graded increases in smell function
